Calls of active or inactive are those of the source.
Tests used:
Type in all cases: functional
[1] = biological target: Voltage-dependent T-type calcium channel subunit alpha-1H (Homo sapiens, UniProt O95180);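 further: channel activity triggered by adding a high calcium stimulation buffer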
[2] = Luminescence Cell-Based Dose Retest to Confirm Inhibitors of Cancer Stem Cells. [Related pubchem assays (depositor defined):AID2717, AID2721]; conditions: Homo sapiens
Beta-galactosidase = Beta-galactosidase (Escherichia coli, UniProt Q8VNN2); experiment: beta-galactosidase enzyme inhibitors and activators, dose response, artefact control for CCR6 antagonist project, biochemical, E. coli enzyme, set 3 (AID 504712)
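Wherever AC50 is given: cells exposed to compound for roughly 70 hours or longer before luminescence read.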

Sequence of Voltage-dependent T-type calcium channel subunit alpha-1H (O95180 whole entry): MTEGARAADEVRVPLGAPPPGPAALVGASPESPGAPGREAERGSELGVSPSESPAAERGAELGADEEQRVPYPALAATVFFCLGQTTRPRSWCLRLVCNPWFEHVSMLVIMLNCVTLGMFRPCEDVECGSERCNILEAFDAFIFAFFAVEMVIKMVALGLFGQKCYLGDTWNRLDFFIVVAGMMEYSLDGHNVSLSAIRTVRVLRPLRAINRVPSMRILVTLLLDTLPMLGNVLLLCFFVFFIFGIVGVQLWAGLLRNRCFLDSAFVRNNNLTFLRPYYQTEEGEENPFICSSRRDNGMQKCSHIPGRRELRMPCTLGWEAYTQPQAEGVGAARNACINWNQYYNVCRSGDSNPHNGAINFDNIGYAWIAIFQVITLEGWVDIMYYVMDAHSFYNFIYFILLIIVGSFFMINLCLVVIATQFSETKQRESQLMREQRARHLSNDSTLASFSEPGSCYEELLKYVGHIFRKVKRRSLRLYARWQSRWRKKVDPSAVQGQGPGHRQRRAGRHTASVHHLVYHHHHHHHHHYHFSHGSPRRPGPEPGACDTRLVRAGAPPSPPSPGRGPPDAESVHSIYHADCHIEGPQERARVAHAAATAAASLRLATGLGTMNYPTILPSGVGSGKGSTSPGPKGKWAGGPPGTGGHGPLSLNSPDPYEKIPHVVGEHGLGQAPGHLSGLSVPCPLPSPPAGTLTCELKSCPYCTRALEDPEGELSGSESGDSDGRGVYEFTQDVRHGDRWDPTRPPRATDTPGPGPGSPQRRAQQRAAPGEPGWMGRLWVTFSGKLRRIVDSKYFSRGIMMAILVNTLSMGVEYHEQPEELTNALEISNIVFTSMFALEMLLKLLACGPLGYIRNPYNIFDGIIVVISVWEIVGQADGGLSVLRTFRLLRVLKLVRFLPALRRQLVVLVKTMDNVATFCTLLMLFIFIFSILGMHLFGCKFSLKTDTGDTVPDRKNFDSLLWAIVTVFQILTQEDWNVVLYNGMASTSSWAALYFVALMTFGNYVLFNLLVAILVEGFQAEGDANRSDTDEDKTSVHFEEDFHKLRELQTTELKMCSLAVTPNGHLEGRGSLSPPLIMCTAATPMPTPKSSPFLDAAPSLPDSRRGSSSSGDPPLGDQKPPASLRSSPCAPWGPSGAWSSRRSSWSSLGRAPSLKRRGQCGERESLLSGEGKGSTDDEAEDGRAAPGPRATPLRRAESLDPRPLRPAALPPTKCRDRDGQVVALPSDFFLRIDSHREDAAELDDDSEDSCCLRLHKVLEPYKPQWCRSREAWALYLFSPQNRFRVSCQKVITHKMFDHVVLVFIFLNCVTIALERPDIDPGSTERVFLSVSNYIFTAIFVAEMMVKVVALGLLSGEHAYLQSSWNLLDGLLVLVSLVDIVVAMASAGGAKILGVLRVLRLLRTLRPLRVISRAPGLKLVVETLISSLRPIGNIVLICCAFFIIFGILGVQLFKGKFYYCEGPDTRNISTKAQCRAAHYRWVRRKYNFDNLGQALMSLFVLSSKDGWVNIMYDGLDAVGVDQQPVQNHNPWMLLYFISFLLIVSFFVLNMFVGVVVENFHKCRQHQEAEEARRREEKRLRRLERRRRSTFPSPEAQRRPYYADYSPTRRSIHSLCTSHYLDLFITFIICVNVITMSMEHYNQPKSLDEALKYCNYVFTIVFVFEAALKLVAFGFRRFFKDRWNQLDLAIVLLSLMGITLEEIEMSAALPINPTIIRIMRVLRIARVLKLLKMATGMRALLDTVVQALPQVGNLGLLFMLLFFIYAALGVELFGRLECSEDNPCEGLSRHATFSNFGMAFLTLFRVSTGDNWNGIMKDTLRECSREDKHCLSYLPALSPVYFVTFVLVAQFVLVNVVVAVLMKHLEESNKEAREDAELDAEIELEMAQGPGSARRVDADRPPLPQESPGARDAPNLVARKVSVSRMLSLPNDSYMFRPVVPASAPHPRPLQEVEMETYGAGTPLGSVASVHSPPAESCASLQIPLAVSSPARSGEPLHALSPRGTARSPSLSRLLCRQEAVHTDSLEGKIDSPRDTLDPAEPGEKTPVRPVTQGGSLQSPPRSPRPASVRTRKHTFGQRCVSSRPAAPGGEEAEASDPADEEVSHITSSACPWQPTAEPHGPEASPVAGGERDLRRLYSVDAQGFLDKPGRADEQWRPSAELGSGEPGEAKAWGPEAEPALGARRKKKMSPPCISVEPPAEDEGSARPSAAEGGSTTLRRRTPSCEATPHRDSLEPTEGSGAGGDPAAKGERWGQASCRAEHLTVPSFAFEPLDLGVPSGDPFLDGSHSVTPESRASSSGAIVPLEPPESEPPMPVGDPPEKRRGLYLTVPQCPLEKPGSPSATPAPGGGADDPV
Sequence of Beta-galactosidase (Q8VNN2 whole entry): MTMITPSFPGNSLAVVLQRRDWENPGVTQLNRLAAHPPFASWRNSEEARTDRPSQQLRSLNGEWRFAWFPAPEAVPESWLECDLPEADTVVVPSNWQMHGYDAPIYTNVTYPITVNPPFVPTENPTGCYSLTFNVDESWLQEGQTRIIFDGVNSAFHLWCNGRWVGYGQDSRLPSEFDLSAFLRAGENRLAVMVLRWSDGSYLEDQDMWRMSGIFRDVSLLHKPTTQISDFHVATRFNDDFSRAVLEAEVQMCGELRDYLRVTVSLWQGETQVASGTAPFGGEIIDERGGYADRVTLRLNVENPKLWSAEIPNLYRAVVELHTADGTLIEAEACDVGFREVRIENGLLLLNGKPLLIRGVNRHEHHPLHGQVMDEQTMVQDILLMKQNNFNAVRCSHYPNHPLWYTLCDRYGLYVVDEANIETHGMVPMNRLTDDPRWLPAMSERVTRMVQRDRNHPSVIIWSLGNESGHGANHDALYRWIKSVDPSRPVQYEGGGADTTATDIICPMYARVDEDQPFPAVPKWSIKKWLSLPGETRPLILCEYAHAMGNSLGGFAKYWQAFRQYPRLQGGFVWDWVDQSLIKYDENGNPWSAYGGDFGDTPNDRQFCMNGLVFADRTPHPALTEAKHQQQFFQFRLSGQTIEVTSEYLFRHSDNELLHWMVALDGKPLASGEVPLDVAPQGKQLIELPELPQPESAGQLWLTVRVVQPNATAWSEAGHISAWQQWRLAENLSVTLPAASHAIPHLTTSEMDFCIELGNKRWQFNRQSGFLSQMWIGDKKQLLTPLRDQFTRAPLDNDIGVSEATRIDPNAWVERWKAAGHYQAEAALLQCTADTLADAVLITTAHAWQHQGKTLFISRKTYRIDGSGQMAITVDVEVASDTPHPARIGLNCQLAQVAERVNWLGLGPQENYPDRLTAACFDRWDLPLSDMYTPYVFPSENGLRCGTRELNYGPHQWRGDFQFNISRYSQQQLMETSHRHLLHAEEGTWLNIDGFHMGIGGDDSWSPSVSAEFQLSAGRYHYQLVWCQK

Row | SMILES | EC50 [1] | AC50 [2] | IC50 (Beta-galactosidase)
1 | CCCOc1cc(C)c(S(=O)(=O)n2ccc(C)n2)cc1C | 5.47 µM (active) | – | –
2 | CCC(=O)N1CCN(c2ccccc2NC(=O)Cc2ccccc2)CC1 | 12.9 µM (active) | – | –
3 | Cc1ccc(C(NC(=O)C(C)C)c2cc([N+](=O)[O-])c3cccnc3c2O)cc1 (centres undefined) | – | 1.02 µM (active) | > 66.6 µM (inactive)

Source: ChEMBL document CHEMBL1201862, “PubChem BioAssay data set” (2004)
